Holding throughout (type): functional, organism-based
Assay [1] relates to Plasmodium berghei. Put plainly: Antimalarial activity against Plasmodium berghei infected in mouse at 10 mg/kg. Details: dose 10 mg/kg.
For assay [2], the system named is Plasmodium berghei. Put plainly: Antimalarial activity against Plasmodium berghei infected in mouse assessed as complete cure at 40 mg/kg. Details: dose 40 mg/kg.
The test system of assay [3] is Plasmodium berghei. The assay is described as follows: Antimalarial activity against Plasmodium berghei infected in mouse at 20 mg/kg. Details: dose 20 mg/kg.
Assay [4] deals with Plasmodium berghei. Put plainly: Antimalarial activity against Plasmodium berghei infected in mouse assessed as complete cure at 160 mg/kg. Details: dose 160 mg/kg.

Active and inactive are the calls of the source. No cut-off for these calls is given here.

`CCCCN(CCCC)CC(O)c1c2c(nc3c(C)cc(C)cc13)/C(=C/c1ccc(Cl)cc1)CC2` (stereo not given): the result in the assay on Plasmodium berghei [1] and with Plasmodium berghei [2] was Active.

Consider `CCCCN(CCCC)CC(O)c1cc(/C=C/c2ccc(Cl)cc2)nc2c(C)cc(C)cc12` (stereo not given), for which the result in the assay on Plasmodium berghei [3] and in the assay with Plasmodium berghei [4] was Active.

`Cc1cc(C)c2nc3c(c([C@H]4OC(c5ccc(Cl)cc5)N5CCCC[C@H]45)c2c1)CCC3` (mixture of isomers): the result with Plasmodium berghei [2] was inactive.

The values above are taken from ChEMBL document CHEMBL3272256, “Antimalarials. 11. 2-Vinylogs of substituted 2-aryl-4-quinoline amino alcohols” (J Med Chem, 1976).
